Experimental data from US6872850B2, “Small molecule inhibitors of secretion of proteins encoded by ARE-mRNAs” (Message Pharmaceuticals, priority 2001, dated 2005).

What was measured:
TNFα = experiment: ELISA of TNFα secreted into the media after LPS; type: cell-based; details: 10 μM compound, 1 h, then LPS
Experimental: The ability of candidate compounds to reduce the amount of secreted TNFα was also directly tested using an ELISA assay. […] A standard ELISA analysis was used to measure the amount of TNFα secreted into the media (see, for example, Ausubel et al., supra). The effect of a candidate compound on TNFα secretion in this assay is reported in the following tables as a percentage of the amount of TNFα secreted by a control cell that was administered a DMSO vehicle control only.

3′ UTR of the TNFα gene = experiment: cell-based luciferase reporter assay, 5B cell line (luciferase gene with entire 3′ UTR of the TNFα gene); design: species or system mouse; details: for Luciferase 5B (% of DMSO control): 1 h, then LPS, 5B cell line
Experimental: The candidate compounds were tested in a high-throughput, cell-based luciferase reporter assay. For this assay, a commercially available mouse macrophage Raw 264.7 cell line was stably transfected with a construct containing the CMV promoter operably linked to the luciferase gene which was modified using standard molecular biology techniques to contain the entire 3′ UTR of the TNFα gene. This 3′ UTR is important for the stability and translation of TNFα in cells. To control for effects of candidate compounds that are not specific for TNFα, a control cell line, called “3B,” was generated by stably transfecting the 264.7 cell line with a commercially available construct containing the luciferase gene (without the addition of the heterologous 3′ UTR of the TNFα gene) under the regulation of the CMV promoter.
[…] Then, lipopolysaccharide (LPS) was added to stimulate TNFα secretion. Luciferase activity was measured by determining the luminescence intensity due to the reaction of lucifern, ATP, Mg^2+, and molecular O2 (see, for example, Ausubel et al., supra). The luciferase activity in a cell incubated with a candidate compound was reported as a percentage of the luciferase activity for the corresponding cell incubated with DMSO vehicle only.
After correction for any effect caused by the administration of the DMSO only vehicle control, the effect of a candidate compound on luciferase activity in the 3B control cell line represents the global effect of the compound on any step required for expression or activity of luciferase protein, such as luciferase gene transcription, mRNA processing, mRNA stability, translation, protein stability, or enzymatic activity. […] In this case, the luciferase activity in the 5B cell line treated with the DMSO vehicle control is similar to the luciferase activity in the control 3B cell line treated with the candidate compound. Thus, the response of the 5B cell line (as a percent of the DMSO control) and the ratio of the luciferase activity in the 5B cell line (as a percent of the DMSO control) to the luciferase activity in the control 3B cell line (as a percent of the DMSO control) are similar. In desirable embodiments, the response of the 5B cell line and the 5B/3B ratio differ by less than 50, 40, 30, 20, 10, or 5%.

[1] = 10 μM compound, ratio of 5B to control 3B cell line

Row | Compound | TNFα Secretion (% of DMSO control) (TNFα) | Luciferase 5B (% of DMSO control) (3′ UTR of the TNFα gene; 10 μM compound) | Luciferase 5B/3B (% of DMSO control 5B)/(% of DMSO control 3B) (3′ UTR of the TNFα gene; [1]) | effect on luciferase activity in the 5B cell line (luciferase assay), in words (3′ UTR of the TNFα gene) | Luciferase 5B/3B (% of DMSO control 5B)/(% of DMSO control 3B) (3′ UTR of the TNFα gene; 10 μM compound (Table 11))
1 | CC(C)CC(NC(=O)c1ccc(C(=NNC(=N)N)c2ccccc2)cc1)C(=O)N1CCN(C(=O)C(Cc2ccccc2)NC(=O)c2ccccc2)CC1 (stereo not shown) [MES 10247] | 39 % of DMSO control | 37 % of DMSO control | 41 (% of DMSO control 5B)/(% of D |  | 
2 | O=C(N[C@@H](Cc1ccccc1)C(=O)N1CCN(C(=O)CCC(=O)N2CCN(c3ccccc3)CC2)CC1)c1ccc(C(=O)c2ccccc2)cc1 [MES 10229] | 65 % of DMSO control | 31 % of DMSO control | 49 (% of DMSO control 5B)/(% of D |  | 
3 | C/C(=N\NC(=N)N)c1cccc(C(=O)N[C@@H](CC(C)C)C(=O)N2CCN(C(=O)[C@H](Cc3ccccc3)NCc3ccc([N+](=O)[O-])cc3)CC2)c1 [MES 10243] | 73 % of DMSO control | 81 % of DMSO control | 79 (% of DMSO control 5B)/(% of D |  | 
4 | CC(C)CC(NC(=O)c1ccc(C(=NNC(=N)N)c2ccccc2)cc1)C(=O)N1CCN(C(=O)C(Cc2cccc3ccccc23)NC(=O)c2ccc(C(=NNC(=N)N)c3ccccc3)cc2)CC1 (mixture of isomers) [MES 10191] | 22 % of DMSO control | 46 % of DMSO control | 86 (% of DMSO control 5B)/(% of DMSO control 3B) |  | 
5 | CC(C)C[C@H](NC(=O)c1ccc(C(=NNC(=N)N)c2ccccc2)cc1)C(=O)N1CCN(C(=O)[C@H](Cc2ccccc2)NC(=O)c2ccc(C(=O)c3ccccc3)cc2)CC1.O=C(O)C(F)(F)F [MES 10168, (4-E)-Guanylhydrazone of 1-[(S)-N-(4-benzoylbenzoyl)-2-amino-3-phenylpropanoyl]-4-[(2S)-N-(4-benzoylbenzoyl)-2-amino-4-methylpentanoyl]-1,4-piperazine trifluoroacetate] | 35 % of DMSO control | 104 % of DMSO control | 127 (% of DMSO control 5B)/(% of DMSO control 3B) |  | 
6 | CC(C)CC(NC(=O)c1ccc(I)cc1)C(=O)N1CCN(C(=O)C(Cc2ccccc2)NC(=O)c2ccc(C(=NNC(=N)N)c3ccccc3)cc2)CC1 (mixture of isomers) [MES 10226] |  | 23 % of DMSO control | 26 (% of DMSO control 5B)/(% of D | greatest inhibitor activity | 
7 | CC(C)CC(NC(=O)c1ccc([N+](=O)[O-])cc1)C(=O)N1CCN(C(=O)C(Cc2ccccc2)NC(=O)c2ccc(C(=NNC(=N)N)c3ccccc3)cc2)CC1 (mixture of isomers) [MES 10224] |  | 36 % of DMSO control | 37 (% of DMSO control 5B)/(% of D |  | 
8 | C/C(=N\N=C(N)N)c1cccc(C(=O)NCCNC(=O)[C@H](Cc2ccccc2)NC(=O)c2ccc(C(=O)c3ccccc3)cc2)c1.O=C(O)C(F)(F)F [MES 10093, (4-E)-Guanylhydrazone of 1-[(S)-N-(4-benzoylbenzoyl)-2-amino-3-phenylpropanoyl]-4-(3-acetylbenzoyl)-1,4-diazabutane trifluoroacetate] |  |  |  |  | 47 (% of DMSO control 5B)/(% of D
9 | CC(=O)N[C@@H](Cc1ccccc1)C(=O)N1CCN(C(=O)[C@H](CC(C)C)NC(=O)c2cccc(/C(C)=N/NC(=N)N)c2)CC1 [MES 10306] |  | 85 % of DMSO control | 125 (% of DMSO control 5B)/(% of D |  | 
10 | CCCCC(NC(=O)c1ccc(C(=NNC(=N)N)c2ccccc2)cc1)C(=O)N1CCN(C(=O)C(Cc2ccccc2)NC(=O)c2ccc(C(=NNC(=N)N)c3ccccc3)cc2)CC1 (mixture of isomers) [MES 10184] |  | 22 % of DMSO control | 35 (% of DMSO control 5B)/(% of DMSO control 3B) |  | 
11 | CC(=NNC(=N)N)c1cccc(C(=O)NC(C(=O)N2CCN(C(=O)C(Cc3ccccc3)NC(=O)c3ccc(C(=NNC(=N)N)c4ccccc4)cc3)CC2)C(C)C)c1 (mixture of isomers) [MES 10183] |  | 58 % of DMSO control | 57 (% of DMSO control 5B)/(% of DMSO control 3B) | inhibited TNFα secretion | 
